Data taken from patent US8821922B2, “Compositions and methods for polymer-caged liposomes” (Northwestern University, priority 2007, dated 2014).

System: KB epidermoid carcinoma cells
Assay: Cytotoxicity study of doxorubicin-loaded liposomes (Guava ViaCount Assay)
Type: cell-based
Conditions: Homo sapiens, 2 h exposure, further 48 h in fresh medium, viable cells counted by Guava ViaCount
Description: Cytotoxictity assay were conducted using the Guava ViaCount Assay system.
Initially, acetylene-functionalized PCLs were prepared using propargyl-modified diamine cross-linkers. Azido-poly(ethylene glycol)-modified folates were then conjugated to the acetylene groups on the surface of PCLs catalyzed by Cu(I) (FIG. 9) to present folate groups on the PCL surface. The folate conjugation to doxorubicin-loaded PCLs indeed increased the drug efficacy against cancer cells as shown through an in vitro model study against KB epidermoid carcinoma cells.
KB cells were continuously cultured in folic acid-free medium supplemented with 10% heat-inactivated fetal bovine serum at 37° C. in a humidified atmosphere containing 5% CO2. The cells were seeded into several 48-well plates at 100,000 cells per well. The plates were then returned to the incubator and the cells were allowed to grow to confluence for 24 h. The media in the wells were replaced with the pre-prepared growth medium-drug-loaded PCL mixture (200 μL of solution at the appropriate Doxorubicin concentrations). The PCL-treated cell cultures were then further incubated for 2 h in a humidified atmosphere containing 5% CO2 at 37° C., after which the growth medium—drug-loaded PCL mixture was removed by aspiration. […] The viable cells were then counted by Guava ViaCount Assay.

**Q.** How did the IC50 turn out when `COc1cccc2c1C(=O)c1c(O)c3c(c(O)c1C2=O)C[C@@](O)(C(=O)CO)C[C@@H]3O[C@H]1C[C@H](N)[C@H](O)[C@H](C)O1` [free DXR, doxorubicin] was run?
**A.** 100 nM
